Publication PMC3745465 (PLoS ONE, 2013)
Like-named read-outs stand apart in the source and are kept apart here. Values belong to the molecule of their own block, whether it stands above or below them.

Tests used:
[1] = tested on: apical uptake transporter (AT); settings: MDCK-MDR1-NKI; fitted
P-gp [2] = target: T1, P-gp (Homo sapiens, UniProt P08183); settings: MDCK-MDR1-NKI; fitted consensus value
in vitro = settings: dog
[3] = mol drug per L lipid / mol drug per L aqueous buffer; 10 µM drug; 37°C
[4] = tested on: MDCK-MDR1-NKI confluent cell monolayers; settings: nicardipine up to 100 µM; data not shown
[5] = design: method as in earlier work; settings: ref 18 19 20, cited from earlier work
P-gp [6] = target: T1, P-gp; experiment: cell-based
[7] = tested on: basolateral digoxin uptake transporter; settings: MDCK-MDR1-NIH; 10 µM digoxin B>A, 1 hr; Trel = 0.6; listed as KCZ
[8] = tested on: basolateral digoxin uptake transporter; settings: Caco-2; 10 µM digoxin B>A, 1 hr; Trel = 0.2
[9] = tested on: basolateral digoxin uptake transporter; settings: CPT-B2; 10 µM digoxin B>A, 1 hr; Trel = 0.3
[10] = MDCK-MDR1, with GF120918 2 µM, both chambers, Passive Permeability Coefficient at steady-state PAB, A>B, +GF120918
[11] = MDCK-MDR1, with GF120918 2 µM, both chambers, Passive Permeability Coefficient at steady-state PBA, B>A, +GF120918
[12] = MDCK-MDR1, with GF120918 2 µM, both chambers, passive permeability, direction not given

T1 sequence (P08183 whole entry): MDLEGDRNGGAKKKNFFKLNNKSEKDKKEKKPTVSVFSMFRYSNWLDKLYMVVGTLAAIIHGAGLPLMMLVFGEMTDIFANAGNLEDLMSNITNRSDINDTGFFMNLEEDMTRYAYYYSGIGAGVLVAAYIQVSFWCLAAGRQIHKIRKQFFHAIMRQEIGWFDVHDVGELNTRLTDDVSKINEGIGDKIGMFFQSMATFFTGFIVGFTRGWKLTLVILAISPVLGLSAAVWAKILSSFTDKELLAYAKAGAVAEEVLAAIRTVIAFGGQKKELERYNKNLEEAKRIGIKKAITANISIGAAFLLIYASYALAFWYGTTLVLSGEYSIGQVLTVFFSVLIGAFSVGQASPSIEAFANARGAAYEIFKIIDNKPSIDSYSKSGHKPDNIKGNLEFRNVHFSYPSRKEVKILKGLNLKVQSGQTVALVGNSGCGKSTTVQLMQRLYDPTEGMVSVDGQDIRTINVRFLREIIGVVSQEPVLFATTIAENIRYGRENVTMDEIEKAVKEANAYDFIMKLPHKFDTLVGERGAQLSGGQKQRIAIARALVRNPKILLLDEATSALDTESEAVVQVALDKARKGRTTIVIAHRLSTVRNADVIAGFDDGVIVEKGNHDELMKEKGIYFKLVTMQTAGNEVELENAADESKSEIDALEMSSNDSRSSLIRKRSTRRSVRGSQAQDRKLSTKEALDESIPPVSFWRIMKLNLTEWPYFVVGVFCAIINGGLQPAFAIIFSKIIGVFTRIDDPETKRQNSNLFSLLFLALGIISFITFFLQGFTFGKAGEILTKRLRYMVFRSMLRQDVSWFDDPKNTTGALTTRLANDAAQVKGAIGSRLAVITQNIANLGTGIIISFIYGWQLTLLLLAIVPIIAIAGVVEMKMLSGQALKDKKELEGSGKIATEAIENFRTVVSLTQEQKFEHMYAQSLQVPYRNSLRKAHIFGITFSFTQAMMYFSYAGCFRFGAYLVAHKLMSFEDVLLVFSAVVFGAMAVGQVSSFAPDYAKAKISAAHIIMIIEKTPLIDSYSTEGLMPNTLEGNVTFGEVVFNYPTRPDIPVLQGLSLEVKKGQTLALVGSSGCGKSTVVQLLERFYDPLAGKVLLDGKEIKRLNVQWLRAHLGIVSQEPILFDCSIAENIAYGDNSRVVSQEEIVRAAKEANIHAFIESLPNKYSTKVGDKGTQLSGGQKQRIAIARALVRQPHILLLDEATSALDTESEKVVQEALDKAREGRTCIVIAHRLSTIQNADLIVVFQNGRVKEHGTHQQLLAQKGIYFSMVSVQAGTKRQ

Compound: CC(C)CN(C[C@@H](O)[C@H](Cc1ccccc1)NC(=O)O[C@H]1CCOC1)S(=O)(=O)c1ccc(N)cc1 [Amprenavir]
- Other Transporters kA, 1st order clearance through apical uptake transporter [1]: 350±30 0 s^−1

- Dissociation from P-gp into Apical Bilayer kr (P-gp [2]): (4±2)×10^+3 s^−1
- Efflux from P-gp into Apical Chamber k2 (P-gp [2]): 3 ± 0.4 s⁻¹
- Papp (in vitro; [10]): 67 ± 5 ×10⁻⁶ cm/s
- Papp (in vitro; [11]): 67 ± 5 ×10⁻⁶ cm/s
Compound: C=C[C@H]1C[N@@]2CC[C@H]1C[C@@H]2[C@@H](O)c1ccnc2ccc(OC)cc12 [Quinidine]

- Molar partition coefficient, Apical Outer Leaflet PC/SM/Chol (1∶1∶1) (mols), KAO [3]: 200±3
- Molar partition coefficient, Basolateral Outer Leaflet PC/Chol (2∶1) (mols), KBO [3]: 200±20
- Molar partition coefficient, Plasma Cytosolic Leaflet PE/PS/Chol (1∶1∶1) (mols), KPC [3]: 200±50
- Dissociation from P-gp into Apical Bilayer kr (P-gp [2]): (5±2.5)×10^+4 s^−1
- Efflux from P-gp into Apical Chamber k2 (P-gp [2]): 3 ± 0.5 s⁻¹
- Papp (in vitro; [10]): 5.5 ± 2 ×10⁻⁶ cm/s
- Papp (in vitro; [11]): 9 ± 1 ×10⁻⁶ cm/s
- Papp (in vitro; [12]): < 10 ×10⁻⁶ cm/s
Compound: CC[C@]1(O)C[C@@H]2CN(CCc3c([nH]c4ccccc34)[C@@](C(=O)OC)(c3cc4c(cc3OC)N(C)[C@H]3[C@@](O)(C(=O)OC)[C@H](OC(C)=O)[C@]5(CC)C=CCN6CC[C@]43[C@@H]65)C2)C1 [Vinblastine]
- Other Transporters kA, 1st order clearance through apical uptake transporter [1]: 0 s⁻¹

Compound: COC(=O)C1=C(C)NC(C)=C(C(=O)OCCN(C)Cc2ccccc2)C1c1cccc([N+](=O)[O-])c1 (stereo not drawn) [nicardipine]
- PC plateau (large inhibitor concentration plateau) of digoxin transport inhibition [4]: significantly above zero
- shape of inhibition curve of digoxin transport [4]: sigmoidal
- concentration above which large aggregates are made ([5]; enzyme inhibition studies): 30–40 µm
- concentration at which colloidal aggregates form [5]: about 30 µM

Compound: C[C@H]1O[C@@H](O[C@H]2[C@@H](O)C[C@H](O[C@H]3[C@@H](O)C[C@H](O[C@H]4CC[C@@]5(C)[C@H](CC[C@@H]6[C@@H]5C[C@@H](O)[C@]5(C)[C@@H](C7=CC(=O)OC7)CC[C@]65O)C4)O[C@@H]3C)O[C@@H]2C)C[C@H](O)[C@@H]1O [Digoxin]
- Dissociation from P-gp into Apical Bilayer kr (P-gp [2]): (3±1)×10^+4 s^−1
- Efflux from P-gp into Apical Chamber k2 (P-gp [2]): 3 ± 1 s⁻¹
- Other Transporters kA, 1st order clearance through apical uptake transporter [1]: 40 ± 20 s⁻¹
- aggregating compound or not ([5]; enzyme inhibition studies): not to be aggregating compounds
- Papp (in vitro; [10]): 4 ± 1 ×10⁻⁶ cm/s
- Papp (in vitro; [11]): 5 ± 1 ×10⁻⁶ cm/s
- Papp (in vitro; [12]): < 10 ×10⁻⁶ cm/s

Compound: CN(C)C(=O)C(CCN1CCC(O)(c2ccc(Cl)cc2)CC1)(c1ccccc1)c1ccccc1 [Loperamide]
- Molar partition coefficient, Apical Outer Leaflet PC/SM/Chol (1∶1∶1) (mols), KAO [3]: 300±50
- Molar partition coefficient, Basolateral Outer Leaflet PC/Chol (2∶1) (mols), KBO [3]: 450±50
- Molar partition coefficient, Plasma Cytosolic Leaflet PE/PS/Chol (1∶1∶1) (mols), KPC [3]: 1500±250
- Dissociation from P-gp into Apical Bilayer kr (P-gp [2]): (2±1)×10^+4 s^−1
- Efflux from P-gp into Apical Chamber k2 (P-gp [2]): 0.4 ± 0.08 s⁻¹
- Papp (in vitro; MDCK-MDR1, Passive Permeability Coefficient at steady-state PAB, A>B, +GF120918): 32 ± 7 ×10⁻⁶ cm/s
- Papp (in vitro; MDCK-MDR1, Passive Permeability Coefficient at steady-state PBA, B>A, +GF120918): 32 ± 9 ×10⁻⁶ cm/s
- Papp (in vitro; MDCK-MDR1, passive permeability, direction not given): ~32 ×10⁻⁶ cm/s
- Kd (P-gp [6]): 200 µM

Compound: CC(=O)N1CCN(c2ccc(OCC3COC(Cn4ccnc4)(c4ccc(Cl)cc4Cl)O3)cc2)CC1 (stereo not drawn) [Ketoconazole]
- Other Transporters kA, 1st order clearance through apical uptake transporter [1]: 730±70 0 s^−1
- KQB, effective association constant of inhibitor to basolateral digoxin uptake transporter [7]: (4±2)×10^5 M^−1
- aggregating compound or not ([5]; enzyme inhibition studies): not to be aggregating compounds
- KQB, effective association constant of inhibitor to basolateral digoxin uptake transporter [8]: (2±1)×10^6 M^−1
- KQB, effective association constant of inhibitor to basolateral digoxin uptake transporter [9]: (4±2)×10^6 M^−1
